In patent publication US20180116993A1, “MODULATORS OF FARNESOID X RECEPTOR AND METHODS FOR THE USE THEREOF” (XIAMEN UNIVERSITY, priority 2015, published 2018):
Like-named read-outs stand apart in the source and are kept apart here. Marks after values point to notes of the source that are not given here.

What was measured:
full-length FXR = molecular target: T1, full-length FXR (Homo sapiens, UniProt Q96RI1); assay: Cell-based FXR transactivation, EcRE luciferase reporter in COS-7 cells; conditions: for Cell-based FXR transactivation Fold changes by 5 μM compound: positive: induction, minus: repression; for EC50 / fold induction at 5 µM: EcRE luciferase reporter; for Cell-based FXR transactivation Fold changes by 5 μM compound / fold induction at 5 µM: 5 μM compound
T1 construct: The cells were co-transfected with plasmids encoding full-length FXR and the cognate luciferase reporter EcRE-Luc; expressed in transfected cells; host or cells: COS-7
T1 sequence (Q96RI1 1-486): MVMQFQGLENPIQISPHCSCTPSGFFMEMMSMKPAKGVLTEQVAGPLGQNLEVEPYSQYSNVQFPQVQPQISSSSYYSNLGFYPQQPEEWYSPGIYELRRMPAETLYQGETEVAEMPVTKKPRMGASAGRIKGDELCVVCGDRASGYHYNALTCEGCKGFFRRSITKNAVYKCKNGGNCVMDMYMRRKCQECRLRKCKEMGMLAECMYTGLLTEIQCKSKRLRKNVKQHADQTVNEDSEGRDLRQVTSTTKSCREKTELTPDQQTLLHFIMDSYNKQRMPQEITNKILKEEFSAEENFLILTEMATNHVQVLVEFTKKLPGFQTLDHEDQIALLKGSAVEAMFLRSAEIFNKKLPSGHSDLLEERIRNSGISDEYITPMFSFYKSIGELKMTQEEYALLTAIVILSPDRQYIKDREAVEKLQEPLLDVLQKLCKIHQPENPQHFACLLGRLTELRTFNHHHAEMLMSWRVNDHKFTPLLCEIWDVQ
Protocol: COS-7 cells were cotransfected with plasmids encoding full length FXR.
For transient transfection assay, COS-7 cells were maintained in DMEM containing 10% fetal bovine serum and were transiently transfected using Lipofectamine 2000 (Invitrogen). Before 24 h of transfection, 24-well plates were plated. The cells were co-transfected with plasmids encoding full-length FXR and the cognate luciferase reporter EcRE-Luc. Ligands were added 5 hours after transfection. Cells were harvested 24 hours later for the luciferase assays according to the manufacturer's instructions (Dual-Luciferase® Reporter Assay System, Promega). Luciferase activities were normalized to renilla activity co-transfected as an internal control.

[1] = test system: human breast cancer MCF7 cells; assay: MTT cell viability assay, MCF-7; format: cell-based; conditions: 48 h, read-out: Cell viability as a percentage of the cells treated with DMSO, MCF-7
Text: (§1) The MTT assay is a colorimetric assay for assessing cell metabolic activity. It is widely used in high-throughput screening of antitumor drugs due to its high sensitivity and economical features. In this example, MTT was used to detect the inhibitory effects of compounds on various cancer cell lines. Cancer cells including human colorectal adenocarcinoma HCT15 cells, RA-resistant human colon cancer HCT116 cells, human cervical carcinoma Hela cells, human hepatoma HepG2 cells and human breast cancer MCF7 cells were cultured in DMEM medium containing 10% fetal bovine serum. 20 uM or 40 uM of compounds were administered to treat cells, cell viability is detected by MTT assay and expressed as a percentage of the cells treated with DMSO (Table 4).

[2] = test system: human hepatoma HepG2 cells; assay: MTT cell viability assay, HepG2; format: cell-based; conditions: 48 h, read-out: Cell viability as a percentage of the cells treated with DMSO, HepG2
Text: as §1

[3] = test system: human colorectal adenocarcinoma HCT15 cells; assay: MTT cell viability assay, HCT15; format: cell-based; conditions: 48 h, read-out: Cell viability as a percentage of the cells treated with DMSO, HCT15; for viability at 20 µM: HCT-15, 20 uM; for viability at 40 µM: HCT-15, 40 uM
Text: as §1

[4] = molecular target: T2, FXR ligand binding domain (LBD) (Homo sapiens, UniProt Q96RI1); assay: AlphaScreen assay: FXR LBD recruitment of coregulator peptide motifs (SRC2-3, SRC1-2); format: biochemical
T2 construct: made in house
T2 sequence (Q96RI1 262-486 limits assumed): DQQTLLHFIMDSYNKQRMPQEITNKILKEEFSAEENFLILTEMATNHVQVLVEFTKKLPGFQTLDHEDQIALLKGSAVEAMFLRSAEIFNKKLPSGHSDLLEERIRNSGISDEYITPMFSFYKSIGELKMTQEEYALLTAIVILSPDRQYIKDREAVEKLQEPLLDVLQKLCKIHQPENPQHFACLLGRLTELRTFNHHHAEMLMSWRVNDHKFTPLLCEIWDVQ
Protocol: In search of novel ligands for FXR, we used FXR ligand binding domain (LBD) as a bait to screen chemical libraries based on AlphaScreen biochemical assay, which determines the efficacy of small molecules in influencing binding affinity of FXR with coregulator peptides (see e.g., Jin et al., (2013) Nature communications 4, 1937).
The binding of the cofactor peptide motifs to FXR ligand binding domain (LBD) in response to ligands was determined by AlphaScreen assays using a hexahistidine detection kit from Perkins-Elmer. The FXR LBD protein was purified as described previously (see e.g., Jin et al., (2013) Nature communications 4, 1937). The experiments were conducted with approximately 20-40 nM receptor LBD and 20 nM biotinylated cofactor peptides in the presence of 5 μg/ml donor and acceptor beads in a buffer containing 50 mM MOPS, 50 mM NaF, 0.05 mM CHAPS, and 0.1 mg/ml bovine serum albumin, all adjusted to a pH of 7.4.

[5] = test system: human cervical carcinoma Hela cells; assay: MTT cell viability assay, Hela; format: cell-based; conditions: 48 h, read-out: Cell viability as a percentage of the cells treated with DMSO, Hela
Text: as §1

[6] = test system: RA-resistant human colon cancer HCT116 cells; assay: MTT cell viability assay, HCT116; format: cell-based; conditions: 48 h, read-out: Cell viability as a percentage of the cells treated with DMSO, HCT116; for viability at 20 µM: HCT-116, 20 uM; for viability at 40 µM: HCT-116, 40 uM
Text: as §1

db/db mice = assay: Hepatic triglyceride, liver histology, serum ALT and ALP in high-fat diet fed db/db mice; format: in vivo, mouse; conditions: for Serum ALP (U/L): vehicle 129 ± 15
Protocol: Liver tissues fixed in 4% paraformaldehyde in example 5 were performed for H&E staining by standard procedures. Liver tissues fixed in 4% paraformaldehyde were embedded in optimum cutting temperature compound (OCT), and cryosectioned. Frozen liver sections were stained with 0.3% oil red O according to standard procedures.
The triglyceride levels in liver tissues from mice treated with compounds were analyzed using Tissue triglyceride assay kit (Applygen, Beijing, China).
Alkaline Phosphatase (ALP) is a marker of cholestasis. Cholestasis can be suspected when there is an elevation of ALP enzymes. In fact, greater than 90% of patients with bile stasis will have an elevated alkaline phosphatase. […] The aminotransferase is used to evaluate the presence of hepatitis and may be elevated in cholestasis or with common bile duct obstruction. In this example, 8-10 week age db/db mice were fed with high-fat diet and treated with 10 mg/kg of compounds once daily for 10 days as in Example 5. The activities of serum ALP and ALT were analyzed using ALP kit and ALT kit, respectively (Nanjing Jiancheng Engineering Institute, China).

[7] = SRC1-2 peptide, Table 2, read-out: EC50 (μM) of FXR binding by AlphaScreen assay recruit SRC1-2
[8] = SRC2-3 peptide, Table 2, read-out: EC50 (μM) of FXR binding by AlphaScreen assay recruit SRC2-3
[9] = SRC1-2 peptide, Table 1, read-out: EC50 (μM) of FXR binding by AlphaScreen assay recruit SRC1-2
[10] = SRC2-3 peptide, Table 1, read-out: EC50 (μM) of FXR binding by AlphaScreen assay recruit SRC2-3
[11] = 10 mg/kg once daily for 10 days
[12] = 10 mg/kg once daily for 10 days, vehicle 377 ± 48, Table 17

Cell-based FXR transactivation Fold changes by 5 μM compound (full-length FXR; Table 2) | EC50 (full-length FXR; Table 2) [nM] | EC50 [4, 7] [µM] | EC50 [4, 8] [µM] | Compound | viability at 20 µM [1] [%] | viability at 40 µM [1] [%] | viability at 20 µM [2] [%] | viability at 40 µM [2] [%] | viability at 20 µM [3] [%] | viability at 40 µM [3] [%] | viability at 20 µM [5] [%] | viability at 40 µM [5] [%] | viability at 20 µM [6] [%] | viability at 40 µM [6] [%] | further results
5 | 1000 to 10000 | 1 to 10 | 1 to 10 | Cc1cc(C(=O)OC2CC3CCC2(C)C3(C)C)ccc1F (stereo not shown) [XD-1, 1,7,7-trimethyl-bicyclo[2.2.1]-heptan-2-yl 4-fluoro-3-methylbenzoate] | 100 ± 2 | 65 | 100 ± 2 | 62 ± 7 | 93 ± 2 | 42 ± 3 | 100 ± 5 | 70 ± 3 | 96 ± 2 | 62 ± 3 | –
– | – | – | – | O=C(Oc1ccc(O)cc1)C12CC3CC(CC(C3)C1)C2 [Tricyclo-[3.3.1.1^3,7]decane-1-carboxylic acid, 4-hydroxy-phenyl ester] | – | – | – | – | – | – | – | – | – | – | fold induction at 5 µM (full-length FXR; Table 1): > 10; EC50 (full-length FXR; Table 1): < 1000 nM; EC50 [4, 9]: < 1 µM; EC50 [4, 10]: < 1 µM
5 | 1000 to 10000 | 1 to 10 | 1 to 10 | COc1cc(C(=O)OC2CC3CCC2(C)C3(C)C)ccc1F (stereo not shown) [XD-3, 1,7,7-trimethyl-bicyclo[2.2.1]-heptan-2-yl 4-fluoro-3-methoxybenzoate] | 100 ± 4 | 40 | 100 ± 3 | 70 ± 3 | 73 ± 5 | 40 ± 1 | 100 ± 1 | 66 ± 3 | 80 ± 4 | 41 ± 4 | Hepatic triglyceride (mM/g) (db/db mice; 10 mg/kg for 10 days, vehicle 148 ± 14): 80 ± 19 ^a mM/g; Serum ALT (U/L) (db/db mice; 10 mg/kg for 10 days, vehicle 377 ± 48, Table 15): 185 ± 29 ^a U/L
1.5 | – | – | – | CC1(C)C2CCC1(C)C(OC(=O)C1CCC(N)CC1)C2 (stereo not shown) [XD-21, 1,7,7-trimethyl-bicyclo[2.2.1]-heptan-2-yl 4-aminocyclo-hexane-carboxylate] | – | – | – | – | – | – | – | – | – | – | –
3 | > 1000 | 1 to 10 | 1 to 10 | Nc1ccc(C(=O)OC2CC3CCC2C3)cc1 (stereo not shown) [XD-22, bicyclo[2.2.1]-heptan-2-yl 4-aminobenzoate] | 100 ± 2 | 100 ± 1 | 100 ± 3 | 100 ± 8 | 100 ± 4 | 100 ± 4 | 100 ± 2 | 100 ± 4 | 89 ± 1 | 65 ± 4 | –
– | – | – | – | COc1ccc(OC(=O)C23CC4CC(CC(Cl)(C4)C2)C3)cc1 [Tricyclo-[3.3.1.1^3,7]decane-1-carboxylic acid, 3-chloro-, 4-methoxyphenyl ester] | – | – | – | – | – | – | – | – | – | – | fold induction at 5 µM (full-length FXR; Table 1): > 10; EC50 (full-length FXR; Table 1): < 1000 nM; EC50 [4, 9]: < 1 µM; EC50 [4, 10]: < 1 µM
3 | 1000 to 10000 | – | – | CC1(C)C2CCC1(C)C(OC(=O)c1ccc([N+](=O)[O-])cc1)C2 (stereo not shown) [XD-14, 1,7,7-trimethyl-bicyclo[2.2.1]-heptan-2-yl 4-nitrobenzoate] | 91 ± 7 | 84 ± 2 | 83 | 77 ± 1 | 64 ± 4 | 58 ± 4 | 90 ± 1 | 80 ± 5 | 60 ± 3 | 42 ± 3 | Serum ALP (U/L) (db/db mice; [11]): 86 ± 20^a U/L; Serum ALT (U/L) (db/db mice; [12]): 62 ± 11^c U/L
– | – | – | – | Nc1cccc(C(=O)OCC23CC4CC(CC(C4)C2)C3)c1 [Tricyclo-[3.3.1.1^3,7]decane-1-methanol, 1-(3-aminobenzoate)] | – | – | – | – | – | – | – | – | – | – | fold induction at 5 µM (full-length FXR; Table 1): > 10; EC50 (full-length FXR; Table 1): < 1000 nM; EC50 [4, 9]: < 1 µM; EC50 [4, 10]: < 1 µM
1.5 | – | – | – | O=C(OC1CCCCCCC1)C1CCC(O)CC1 (stereo not shown) [XD-19, cyclooctyl 4-hydroxy-cyclohexane-carboxylate] | – | – | – | – | – | – | – | – | – | – | –
−2 | < 1000 | – | – | O=C(OC1CCC2CCCCC2C1)c1ccc([N+](=O)[O-])cc1 (stereo not shown) [XD-26, decahydro-naphthalen-2-yl 4-nitrobenzoate] | 100 ± 2 | 92 ± 2 | 100 ± 2 | 100 ± 2 | 86 ± 2 | 56 ± 2 | 87 | 70 ± 2 | 100 ± 2 | 92 ± 2 | –
2 | 1000 to 10000 | < 1 | < 1 | Cc1cc(C(=O)OC2CCC3CCCCC3C2)ccc1F (stereo not shown) [XD-34, decahydro-naphthalen-2-yl 4-fluoro-3-methylbenzoate] | 100 ± 6 | 99 ± 6 | 100 ± 6 | 88 ± 6 | 100 ± 6 | 100 ± 6 | 98 ± 6 | 97 ± 6 | 98 ± 6 | 94 ± 6 | Serum ALP (U/L) (db/db mice; [11]): 91 ± 18^a U/L; Serum ALT (U/L) (db/db mice; [12]): 73 ± 20^b U/L
